The source made the active and inactive calls. No cut-off for these calls is given here.
How the values were obtained:
[1] = biological target: Human immunodeficiency virus type 1 integrase (Human immunodeficiency virus 1, UniProt Q7ZJM1); test: Inhibition of HIV1 His6-tagged integrase-human GST tagged LEDGF/p75 (373-442 residues) interaction after 30 mins by AlphaScreen assay
[2] = biological target: Human immunodeficiency virus type 1 integrase (Human immunodeficiency virus 1) (UniProt Q7ZJM1); test: Inhibition of nuclear translocation of HIV1 EGFP-labeled integrase expressed in human 293T cells at 36.40 uM after 24 hrs by microscopic analysis; format: cell-based
[3] = Cytotoxicity against human C8166 cells after 3 days by MTT assay; format: cell-based
[4] = Therapeutic index, ratio of CC50 for human C8166 cells to EC50 for HIV-1 3B infected in C8166 cells; format: cell-based; conditions: read-out: Ratio CC50/EC50
[5] = system: Human immunodeficiency virus 1; test: Antiviral activity against HIV-1 3B infected in C8166 cells assessed as virus-induced cytopathic effect measuring […] formation after 3 days by microscopy; format: functional, organism-based; conditions: Human immunodeficiency virus 1, 3B, C8166, 72 h
[6] = biological target: Human immunodeficiency virus type 1 integrase (Human immunodeficiency virus 1) (UniProt Q7ZJM1); test: Inhibition of nuclear translocation of HIV1 EGFP-labeled integrase expressed in human 293T cells at 86.73 uM after 24 hrs by microscopic analysis; format: cell-based
[7] = biological target: Human immunodeficiency virus type 1 integrase (Human immunodeficiency virus 1) (UniProt Q7ZJM1); test: Inhibition of nuclear translocation of HIV1 EGFP-labeled integrase expressed in human 293T cells at 36 uM after 24 hrs by microscopic analysis; format: cell-based
[8] = biological target: Human immunodeficiency virus type 1 integrase (Human immunodeficiency virus 1) (UniProt Q7ZJM1); test: Inhibition of nuclear translocation of HIV1 EGFP-labeled integrase expressed in human 293T cells at 83.83 uM after 24 hrs by microscopic analysis; format: cell-based

| SMILES | IC50 [1] | also measured |
| --- | --- | --- |
| O=C(/C=C/c1cccc(O)c1O)c1ccc(O)cc1O [2,3,2',4'-TETRAHYDROXYCHALCONE] | 1700 nM | – |
| CC1(C)CC[C@]2(C(=O)O)CC[C@]3(C)C(=CC[C@@H]4[C@@]5(C)CC[C@H](OC(=O)CC(C)(C)C(=O)O)C(C)(C)[C@@H]5CC[C@]43C)[C@@H]2C1 | 5510 nM | – |
| O=C(/C=C/c1ccc(O)c(O)c1)O[C@H](Cc1ccc(O)c(O)c1)C(=O)O [ROSMARINIC ACID] | 550 nM | – |
| O=C(/C=C/c1ccccc1Cl)c1ccc(O)cc1O | 320 nM | inhibition [2]: Active; CC50 at 72 h [3]: 8.83 µM; selectivity ratio [4]: 4.88; EC50 [5]: 1.81 µM |
| CC1(C)CC[C@]2(C(=O)O)CC[C@]3(C)C(=CC[C@@H]4[C@@]5(C)CC[C@H](OCc6cccc(C(=O)O)c6)C(C)(C)[C@@H]5CC[C@]43C)[C@@H]2C1 | 1140 nM | – |
| CC1(C)CC[C@]2(C(=O)O)CC[C@]3(C)C(=CC[C@@H]4[C@@]5(C)CC[C@H](OCc6ccccc6)C(C)(C)[C@@H]5CC[C@]43C)[C@@H]2C1 | 700 nM | – |
| O=C(/C=C/c1cc(O)ccc1O)c1ccc(O)cc1O | 3780 nM | – |
| Cc1cn([C@H]2C[C@H](N=[N+]=[N-])[C@@H](CO)O2)c(=O)[nH]c1=O [ZIDOVUDINE] | – | selectivity ratio [4]: 473000; EC50 [5]: 0.0087 µM |
| COc1ccccc1CC(NC(=O)CCCC[C@]12CCC(C)(C)C[C@H]1C1=CC[C@@H]3[C@@]4(C)CC[C@H](O)C(C)(C)[C@@H]4CC[C@@]3(C)[C@]1(C)CC2)C(=O)O (mixture of isomers) | 4560 nM | – |
| COc1cc(CC(NC(=O)CCCC[C@]23CCC(C)(C)C[C@H]2C2=CC[C@@H]4[C@@]5(C)CC[C@H](O)C(C)(C)[C@@H]5CC[C@@]4(C)[C@]2(C)CC3)C(=O)O)cc(OC)c1 (mixture of isomers) | 1260 nM | – |
| Cc1nc2ccccc2c(-c2cc(F)c3c(c2C)CCCO3)c1[C@H](OC(C)(C)C)C(=O)O | 19 nM | – |
| O=C(/C=C/c1ccccc1O)c1cccc(O)c1O | 1610 nM | – |
| O=C(/C=C/c1cccc(O)c1O)c1c(O)cc(O)cc1O | 260 nM | inhibition [6]: Active; CC50 at 72 h [3]: 111 µM; selectivity ratio [4]: 3.76; EC50 [5]: 29.6 µM |
| COc1cccc(CC(NC(=O)CCCC[C@]23CCC(C)(C)C[C@H]2C2=CC[C@@H]4[C@@]5(C)CC[C@H](O)C(C)(C)[C@@H]5CC[C@@]4(C)[C@]2(C)CC3)C(=O)O)c1OC (mixture of isomers) | 3220 nM | – |
| CC1(C)CC[C@]2(C(=O)O)CC[C@]3(C)C(=CC[C@@H]4[C@@]5(C)CC[C@H](OC(=O)C(=O)O)C(C)(C)[C@@H]5CC[C@]43C)[C@@H]2C1 | 9940 nM | – |
| O=C(/C=C/c1cc(F)cc(F)c1)c1ccc(O)cc1O | 1750 nM | – |
| CC1(C)CC[C@]2(CCCCC(=O)NC(Cc3ccccc3Cl)C(=O)O)CC[C@]3(C)C(=CC[C@@H]4[C@@]5(C)CC[C@H](O)C(C)(C)[C@@H]5CC[C@]43C)[C@@H]2C1 (mixture of isomers) | 650 nM | inhibition [7]: Active; CC50 at 72 h [3]: 77.5 µM; selectivity ratio [4]: 2.12; EC50 [5]: 36.6 µM |
| CCOc1cc(/C=C2\SC(=O)N(CC(=O)c3ccccc3)C2=O)c(Br)cc1OCc1ccc(C(=O)O)cc1 | – | inhibition [8]: Active |
| O=C(/C=C/c1ccccc1O)c1c(O)cc(O)cc1O | 6210 nM | – |
| O=C(NCc1cccc([N+](=O)[O-])c1)c1ccc(OCc2ccccc2)cc1O | 3840 nM | – |
| O=C(/C=C/c1ccccc1O)c1ccc(O)c(O)c1 | 3670 nM | – |

From ChEMBL document CHEMBL2176943, “Discovery of inhibitors to block interactions of HIV-1 integrase with human LEDGF/p75 via structure-based virtual screening and bioassays” (J Med Chem, 2012)
